The record followed here is patent publication US10501489B2, “C17-alkanediyl and alkenediyl derivatives of oleanolic acid and methods of use thereof” (REATA PHARMACEUTICALS, INC., priority 2012, dated 2019).

The experiment deals with RAW264.7 mouse macrophages. In words: Suppression of IFNγ-induced NO production (nitric oxide production and cell viability assay). In kind it is cell-based. The following applies: RAW264.7 cells, drug pre-treatment 2 hours, then recombinant mouse IFNγ 24 hours; Griess reagent; normalized to cell viability (WST-1). The procedure:
Assay results for the suppression of IFNγ-induced NO production are shown for several of the compounds of the present invention in Table 1 below. […] Details regarding this assay are provided in the Examples section below. Nitric Oxide Production and Cell Viability Assay. […] On the next day, cells were pre-treated with DMSO or drug (O-200 nM dose range) for 2 hours, and then treated with recombinant mouse IFNγ (R&D Systems) for 24 hours. Nitric Oxide concentration in media was determined using the Griess reagent system (Promega). Cell viability was determined using WST-1 reagent (Roche). IC50 values were determined based on the suppression of IFNγ induced Nitric Oxide production normalized to cell viability.
For `CCNC(=O)OCC[C@]12CCC(C)(C)C[C@H]1[C@H]1C(=O)C=C3[C@@]4(C)C=C(C#N)C(=O)C(C)(C)[C@@H]4CC[C@@]3(C)[C@]1(C)CC2` [TX63981], the IC50 worked out at 3 nM. The same measure for `CCNC(=O)OCCC[C@]12CCC(C)(C)C[C@H]1[C@H]1C(=O)C=C3[C@@]4(C)C=C(C#N)C(=O)C(C)(C)[C@@H]4CC[C@@]3(C)[C@]1(C)CC2` [TX63983]: 5.4 nM. Under `CCOC(=O)CC[C@]12CCC(C)(C)C[C@H]1[C@H]1C(=O)C=C3[C@@]4(C)C=C(C#N)C(=O)C(C)(C)[C@@H]4CC[C@@]3(C)[C@]1(C)CC2` [TX64042] stands 10 nM; under `CC(C)OC(=O)CC[C@]12CCC(C)(C)C[C@H]1[C@H]1C(=O)C=C3[C@@]4(C)C=C(C#N)C(=O)C(C)(C)[C@@H]4CC[C@@]3(C)[C@]1(C)CC2` [TX64043], 21 nM. The same measure for `CC1(C)CC[C@]2(CCC(=O)NC3COC3)CC[C@]3(C)[C@H](C(=O)C=C4[C@@]5(C)C=C(C#N)C(=O)C(C)(C)[C@@H]5CC[C@]43C)[C@@H]2C1` [TX64044]: 1.3 nM; for `CC(=O)NNC(=O)CC[C@]12CCC(C)(C)C[C@H]1[C@H]1C(=O)C=C3[C@@]4(C)C=C(C#N)C(=O)C(C)(C)[C@@H]4CC[C@@]3(C)[C@]1(C)CC2` [TX64045]: 5.6 nM. For the molecule `CC1(C)CC[C@]2(CCC(=O)Oc3ccccc3)CC[C@]3(C)[C@H](C(=O)C=C4[C@@]5(C)C=C(C#N)C(=O)C(C)(C)[C@@H]5CC[C@]43C)[C@@H]2C1` [TX64046], the IC50 stood at 8.5 nM. As to `CC1(C)CC[C@]2(CCC(=O)N3CC[C@H](O)C3)CC[C@]3(C)[C@H](C(=O)C=C4[C@@]5(C)C=C(C#N)C(=O)C(C)(C)[C@@H]5CC[C@]43C)[C@@H]2C1` [TX64047], the IC50 is 3.3 nM. Under `CC1(C)CC[C@]2(CCC(=O)N3CCC(O)CC3)CC[C@]3(C)[C@H](C(=O)C=C4[C@@]5(C)C=C(C#N)C(=O)C(C)(C)[C@@H]5CC[C@]43C)[C@@H]2C1` [TX64048] stands 1.2 nM; under `CC1(C)CC[C@]2(CCC(=O)N3CCC(F)(F)C3)CC[C@]3(C)[C@H](C(=O)C=C4[C@@]5(C)C=C(C#N)C(=O)C(C)(C)[C@@H]5CC[C@]43C)[C@@H]2C1` [TX64049], 2 nM; under `COC(=O)CNC(=O)CC[C@]12CCC(C)(C)C[C@H]1[C@H]1C(=O)C=C3[C@@]4(C)C=C(C#N)C(=O)C(C)(C)[C@@H]4CC[C@@]3(C)[C@]1(C)CC2` [TX64052], 2 nM. Under `CC1(C)CC[C@]2(CCC(=O)OC3CCN(C(=O)OC(C)(C)C)CC3)CC[C@]3(C)[C@H](C(=O)C=C4[C@@]5(C)C=C(C#N)C(=O)C(C)(C)[C@@H]5CC[C@]43C)[C@@H]2C1` [TX64053] stands 37 nM. Under `CC1(C)CC[C@]2(CCC(=O)NCC(=O)O)CC[C@]3(C)[C@H](C(=O)C=C4[C@@]5(C)C=C(C#N)C(=O)C(C)(C)[C@@H]5CC[C@]43C)[C@@H]2C1` [TX64054] stands 97 nM. As to `CC1(C)CC[C@]2(CCC(=O)OC3CCNCC3)CC[C@]3(C)[C@H](C(=O)C=C4[C@@]5(C)C=C(C#N)C(=O)C(C)(C)[C@@H]5CC[C@]43C)[C@@H]2C1` [TX64055], the IC50 was found to be 1.7 nM. In the case of `CONC(=O)CC[C@]12CCC(C)(C)C[C@H]1[C@H]1C(=O)C=C3[C@@]4(C)C=C(C#N)C(=O)C(C)(C)[C@@H]4CC[C@@]3(C)[C@]1(C)CC2` [TX64056], the IC50 amounted to 0.3 nM. Turning to `CC1(C)CC[C@]2(CCC(=O)NC3CCCCC3)CC[C@]3(C)[C@H](C(=O)C=C4[C@@]5(C)C=C(C#N)C(=O)C(C)(C)[C@@H]5CC[C@]43C)[C@@H]2C1` [TX64057], the IC50 turned out to be 0.8 nM.

In the case of `CC1(C)CC[C@]2(CCC(=O)OC3CCCCC3)CC[C@]3(C)[C@H](C(=O)C=C4[C@@]5(C)C=C(C#N)C(=O)C(C)(C)[C@@H]5CC[C@]43C)[C@@H]2C1` [TX64058], the IC50 was determined as 29 nM.

On to `CC1(C)CC[C@]2(CCC(=O)Nc3ccccc3)CC[C@]3(C)[C@H](C(=O)C=C4[C@@]5(C)C=C(C#N)C(=O)C(C)(C)[C@@H]5CC[C@]43C)[C@@H]2C1` [TX64059], for which the IC50 turned out to be 1.4 nM. The same measure for `CN(C)C(=O)CC[C@]12CCC(C)(C)C[C@H]1[C@H]1C(=O)C=C3[C@@]4(C)C=C(C#N)C(=O)C(C)(C)[C@@H]4CC[C@@]3(C)[C@]1(C)CC2` [TX64060]: 0.4 nM; for `CC(C)NC(=O)CC[C@]12CCC(C)(C)C[C@H]1[C@H]1C(=O)C=C3[C@@]4(C)C=C(C#N)C(=O)C(C)(C)[C@@H]4CC[C@@]3(C)[C@]1(C)CC2` [TX64064]: 0.4 nM; for `CC1(C)CC[C@]2(CCC(=O)NC(C)(C)C)CC[C@]3(C)[C@H](C(=O)C=C4[C@@]5(C)C=C(C#N)C(=O)C(C)(C)[C@@H]5CC[C@]43C)[C@@H]2C1` [TX64065]: 0.6 nM.

For `CC1(C)CC[C@]2(CCC(=O)OCc3ccccc3)CC[C@]3(C)[C@H](C(=O)C=C4[C@@]5(C)C=C(C#N)C(=O)C(C)(C)[C@@H]5CC[C@]43C)[C@@H]2C1` [TX64066], the half-inhibitory concentration (IC50) is 20 nM. Under `CC1(C)CC[C@]2(CCC(=O)OC(C)(C)C)CC[C@]3(C)[C@H](C(=O)C=C4[C@@]5(C)C=C(C#N)C(=O)C(C)(C)[C@@H]5CC[C@]43C)[C@@H]2C1` [TX64067] stands 14 nM; under `CC1(C)CC[C@]2(CCC(=O)Nc3ccccn3)CC[C@]3(C)[C@H](C(=O)C=C4[C@@]5(C)C=C(C#N)C(=O)C(C)(C)[C@@H]5CC[C@]43C)[C@@H]2C1` [TX64068], 1.1 nM. Under `CC1(C)CC[C@]2(CCC(N)=O)CC[C@]3(C)[C@H](C(=O)C=C4[C@@]5(C)C=C(C#N)C(=O)C(C)(C)[C@@H]5CC[C@]43C)[C@@H]2C1` [TX64074] stands 0.3 nM; under `CC1(C)CC[C@]2(CCC(=O)N3CCN(C(=O)OC(C)(C)C)CC3)CC[C@]3(C)[C@H](C(=O)C=C4[C@@]5(C)C=C(C#N)C(=O)C(C)(C)[C@@H]5CC[C@]43C)[C@@H]2C1` [TX64124], 3.4 nM; under `CC1(C)CC[C@]2(CCC(=O)N3CCNCC3)CC[C@]3(C)[C@H](C(=O)C=C4[C@@]5(C)C=C(C#N)C(=O)C(C)(C)[C@@H]5CC[C@]43C)[C@@H]2C1` [TX64135], 1.5 nM.
